Here are results for 14 molecules from PubChem BioAssay (NCI).

Test systems include OVCAR-8 ovarian; HCT-116 colon; HL-60(TB) leukemia; SN12C renal; EKVX NSCLC; DU-145 prostate; NCI-H23 lung; T-47D breast; UO-31 renal; SK-OV-3 ovarian.
What all share (experiment): NCI anticancer screen, dose series, 48 h

“And” between values parts separate entries of the source, which are not always exact repeats. Equal values may be shown once.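 Each compound was tested at five concentrations against cells in 96-well plates for 48 hours. Here, GI50 denotes the concentration required for 50% inhibition of growth. TGI: concentration producing complete growth inhibition.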

Consider `O=C(C1OC1c1ccc(Br)cc1O)C12CC3CC(CC(C3)C1)C2` (stereo not given), for which the TGI in the assay on OVCAR-8 ovarian is more than 100 µM; in the assay on HCT-116 colon, 30.9 µM; in the assay with HL-60(TB) leukemia it was 40.9 µM; in the assay with SN12C renal, 30.1 µM; in the assay with EKVX NSCLC it was more than 100 µM; in the assay on DU-145 prostate, more than 100 µM. Moreover, the TGI in the assay with NCI-H23 lung was 81.3 µM; in the assay on T-47D breast, more than 100 µM; with UO-31 renal, 31.3 µM.

As for `O=S(=O)(c1ccccc1)c1cccc2c1NCCC2`, the TGI was more than 100 µM in the assay on OVCAR-8 ovarian; more than 100 µM in the assay on HCT-116 colon; 67.4 µM in the assay on HL-60(TB) leukemia; more than 100 µM in the assay on SN12C renal; more than 100 µM in the assay with EKVX NSCLC; more than 100 µM in the assay on DU-145 prostate. Besides, the TGI in the assay with SK-OV-3 ovarian was more than 10 µM; in the assay with UO-31 renal, more than 100 µM.

Turning to `c1ccc2c3[nH]c(c2c1)=Nc1ccc(cc1)-c1nc2cc(ccc2o1)N=c1[nH]c(c2ccccc12)=Nc1ccc2nc(oc2c1)-c1ccc(cc1)N=3`, the TGI with HCT-116 colon, with HL-60(TB) leukemia, in the assay on SN12C renal, in the assay on EKVX NSCLC, in the assay with DU-145 prostate and in the assay with NCI-H23 lung was more than 100 µM in each case. This molecule yielded a TGI in the assay with UO-31 renal of more than 100 µM.

With `Cc1ccc(-c2cc(-c3ccco3)c(C#N)c(=S)n2C2OC(CO)C(O)C(O)C2O)cc1` (stereo not given), the GI50 in the assay with OVCAR-8 ovarian is 4.73 µM and 30.8 µM; with HCT-116 colon, 4.91 µM and 25.3 µM; in the assay on SN12C renal, 20.6 µM and > 100 µM; in the assay with DU-145 prostate, 30.3 µM; in the assay on NCI-H23 lung, 19.7 µM and 51.9 µM; in the assay on SK-OV-3 ovarian it was 2.51 µM and 21.9 µM. Moreover, the GI50 in the assay with T-47D breast is 23.6 µM and 53 µM. The TGI in the assay on OVCAR-8 ovarian was 22.6 µM and > 100 µM; with HCT-116 colon it was 18.5 µM and > 100 µM; in the assay on SN12C renal it was more than 100 µM; in the assay on EKVX NSCLC it was more than 100 µM; with DU-145 prostate, more than 100 µM; in the assay with NCI-H23 lung it was 90.4 µM and > 100 µM. Besides, the TGI in the assay on SK-OV-3 ovarian was 10.7 µM and > 100 µM; in the assay with T-47D breast, 84.9 µM and > 100 µM; with UO-31 renal, 52 µM and > 100 µM.

Consider `C=C1CCN2CC[C@@H](OC(=O)/C(C)=C\C)[C@@H]12`, for which the TGI in the assay with OVCAR-8 ovarian, in the assay on HCT-116 colon, with SN12C renal, in the assay on EKVX NSCLC, in the assay with DU-145 prostate and in the assay with NCI-H23 lung was more than 100 µM throughout. For the same molecule, the TGI in the assay with SK-OV-3 ovarian, in the assay with T-47D breast and with UO-31 renal was more than 100 µM in each case.

`COc1ncc(/C=C2\OC(=O)c3ccccc32)c(OC)n1`: the TGI in the assay on OVCAR-8 ovarian, with HCT-116 colon, in the assay on HL-60(TB) leukemia, in the assay with SN12C renal, with EKVX NSCLC and in the assay with DU-145 prostate was more than 100 µM in each case. The TGI in the assay on NCI-H23 lung, in the assay with T-47D breast and with UO-31 renal was more than 100 µM throughout.

For `COc1ccc(N=NC(=Nc2ccccc2)c2ccc(N(CCC#N)CCC#N)cc2)cc1`, the TGI with OVCAR-8 ovarian, in the assay on HCT-116 colon, with SN12C renal, with EKVX NSCLC, with DU-145 prostate and in the assay on NCI-H23 lung was more than 100 µM throughout. For the same molecule, the TGI with SK-OV-3 ovarian, in the assay with T-47D breast and with UO-31 renal was more than 100 µM each time.

Turning to `N[C@@H](CCC(=O)NCP(=O)(O)O)C(=O)O`, the TGI in the assay with OVCAR-8 ovarian, in the assay on HCT-116 colon, in the assay with HL-60(TB) leukemia, with SN12C renal, in the assay on EKVX NSCLC and in the assay on NCI-H23 lung was more than 100 µM throughout. Moreover, the TGI in the assay on T-47D breast and with UO-31 renal was more than 100 µM in each case.

As for `O=C(/C=C/c1ccc2c(c1)OCO2)c1ccc(O)cc1`, the TGI was 3.11 µM with OVCAR-8 ovarian; 26.2 µM with HCT-116 colon; 28.7 µM in the assay on HL-60(TB) leukemia; 29.1 µM with SN12C renal; 30.3 µM with EKVX NSCLC; 30.1 µM in the assay with DU-145 prostate. Further, the TGI in the assay with NCI-H23 lung was 30 µM; in the assay with SK-OV-3 ovarian it was 35.1 µM; in the assay on UO-31 renal, 26.2 µM.

For the molecule `Cc1ccccc1OC(C)C(=O)NN1C(=O)CSC1c1ccccc1` (stereo not given), the TGI in the assay with OVCAR-8 ovarian, in the assay with HCT-116 colon, with SN12C renal, in the assay on EKVX NSCLC, in the assay on DU-145 prostate and with NCI-H23 lung was more than 100 µM throughout. In addition, the TGI in the assay with SK-OV-3 ovarian, in the assay with T-47D breast and in the assay on UO-31 renal was more than 100 µM in each case.

Take `Nc1ncnc2c1[nH]c(=O)n2-c1ccccc1`: the TGI with OVCAR-8 ovarian, with HCT-116 colon, in the assay with HL-60(TB) leukemia, in the assay with SN12C renal, with EKVX NSCLC and in the assay with NCI-H23 lung was more than 100 µM throughout. Besides, the TGI with SK-OV-3 ovarian and in the assay with UO-31 renal was more than 100 µM throughout.

For `COc1cc(S(=O)(=O)Nc2nc(-c3ccc(N4C(=O)C(CC(=O)O)SC4c4cccs4)cc3)cs2)ccc1Cl` (stereo not given), the TGI was more than 100 µM in the assay on OVCAR-8 ovarian; more than 100 µM with HCT-116 colon; 74 µM with HL-60(TB) leukemia; more than 100 µM in the assay on SN12C renal; more than 100 µM in the assay with DU-145 prostate; 49 µM in the assay on NCI-H23 lung. In addition, the TGI in the assay with SK-OV-3 ovarian is more than 100 µM; in the assay on T-47D breast, 91.9 µM; with UO-31 renal, 45.2 µM.

Take `COc1ccc2[nH]cc(/C=C(/C)c3ccncc3)c2c1`: the GI50 in the assay on OVCAR-8 ovarian is 7.76 µM; with HCT-116 colon it was 3.67 µM; in the assay on SN12C renal it was 7.58 µM; with NCI-H23 lung, 7.07 µM; in the assay on UO-31 renal it was 3.85 µM. Also, the TGI is more than 100 µM in the assay on OVCAR-8 ovarian; 16.8 µM and 20.5 µM with HCT-116 colon; 3.93 µM with HL-60(TB) leukemia; more than 100 µM with SN12C renal; more than 100 µM in the assay with EKVX NSCLC; 35.6 µM in the assay with SK-OV-3 ovarian. Further, the TGI with UO-31 renal is 28.4 µM and 96.4 µM.

With `CCOC(=O)Nc1sc2c(c1C#N)CCCC2`, the TGI in the assay on HCT-116 colon, in the assay on HL-60(TB) leukemia, in the assay on SN12C renal, with EKVX NSCLC, with DU-145 prostate and with NCI-H23 lung was more than 100 µM in each case. Further, the TGI with SK-OV-3 ovarian and in the assay on UO-31 renal was more than 100 µM throughout.
